Test [1] relates to spinal cord ischemia. Nature of the test: Acute spinal cord ischemia in the rabbit (aortic occlusion, neurologic function after reperfusion). The format is in vivo, New Zealand white rabbits. The following applies: 0.15 mg per kilogram subcutaneous, sixteen hours prior to 20 minutes aortic occlusion at 37° C., evaluated 24 hours after reperfusion, four animals. The text has this:
New Zealand white rabbits were stress conditioned and subjected to spinal cord ischemia using methods similar to those previously described in Perdrizet et al., “Stress conditioning: A novel approach to organ preservation”, Current Surgery, 46(1): 23-26 (January-February 1989), the contents of which are incorporated herein by reference in their entirety. The rabbits were subjected to spinal cord ischemia by occlusion of the infrarenal-abdominal aorta as an ischemic insult to the spinal cord, for 20 minutes at 37° C. The occlusion was then removed and blood flow re-established to the infra-renal aorta. Neurological function of the lower extremities was evaluated 24 hours after reperfusion. Four animals were pretreated with a subcutaneous injection in the rump region of stannous chloride (SnCl2) in a saline diluent at a dose of 0.15 mg per kilogram (0.00066 millimoles per kilogram), sixteen hours prior to aortic occlusion.

Test [2] relates to warm renal ischemia. Nature of the test: Warm ischemic injury of the rat kidney (renal vascular resistance). The conditions noted are these: following 60 minutes of warm ischemic injury, recorded as mm mercury/ml fluid/gram of tissue, control approximately 60, uninjured 43-44. The format is in vivo, Male Sprague-Dawley rats. How it is done:
Male Sprague-Dawley rats were stress conditioned and subjected to warm ischemic injury using methods similar to those previously described in Perdrizet et al., supra. The non-treated control animals underwent 60 minutes of occlusion of the renal artery at 35-37° C. as an ischemic insult. Following the ischemic injury, flow was reestablished in the kidney and vascular resistance of the kidney was measured. To measure renal vascular resistance, a syringe system was attached to the renal artery, to give a constant flow rate of approximately 0.5 cc/minute. Since there was a constant flow rate, it was possible to measure the pressure generated in the syringe. The higher the pressure, the greater the resistance. Renal vascular resistance was recorded as mm mercury/ml fluid/gram of tissue.

`[Cl][Sn][Cl]` [SnCl2, stannous chloride]: the “Neurological function of the lower extremities” value in test [1] is on record as “all four animals pretreated with SnCl2 had normal neurologic function”. In test [2], this compound gave a Renal vascular resistance of 45 resistance units.

(Values after patent US20010021394A1, “Induction of a cellular stress response with heavy metal salts” (priority 1996, published 2001).)
